Source: patent US8183210B2, “Reconstituted surfactants having improved properties” (Chiesi Farmaceutici S.p.A., priority 2006, dated 2012)
Bridge positions count the residues as written; N and C are the ends. Ends that are not written are not given here.

Test system: premature newborn rabbits
Test: Surfactant preparations in ventilated premature newborn rabbits without PEEP (model of RDS): lung gas volumes and tidal volumes
Format: in vivo, rabbit
Details: no PEEP; for lung gas volumes (median): reconstituted surfactant, 2% w/w of each named peptide in DPPC:POPG 68:31 w/w, 80 mg/ml, 2.5 ml/kg at birth, FIG. 3
Method: The surfactant preparations were assayed in premature newborn rabbits, obtained by hysterectomy at the gestational age of 27 days. The experiments were performed without applying a positive end expiratory pressure (PEEP). As the SP-C analog, the polypeptide referred to as SP-C33 was used which was prepared according to Example 1. As the analog of the protein SP-B, oxidized Mini-B (ox Mini-B) was used which was prepared according to Example 2.
The animals were treated at birth with reconstituted surfactant preparations containing, as lipid carrier, the phospholipid mixture DPPC:POPG in the ratio 68:31 w/w. The phospholipids were mixed with 2 or 4% w/w SPC-33, 2% w/w ox Mini-B, or 2% w/w SPC-33 plus 2% w/w ox Mini-B. Animals receiving the same dose of Curosurf® served as positive controls, and non-treated littermates served as negative controls. All surfactant preparations were administered at a concentration of 80 mg/ml and at a standard dose of 2.5 ml/kg.
The immature newborn rabbits were ventilated in parallel with a standardized sequence of peak insufflation pressures. To open up the lungs, pressure was first set at 35 cmH2O for 1 minute. After this recruitment manoeuvre, pressure was lowered to 25 cmH2O for 15 minutes and further on to 20 and 15 cm H2O. Finally, the pressure was raised again to 25 cmH2O for 5 minutes, after which the lungs were ventilated for additional 5 minutes with nitrogen and then excised for gas volume measurements. Both lung gas volumes and tidal volumes expressed as ml/kg were measured, and the results, given as median values, are reported in FIGS. 3 and 4, respectively.

CWLCRALIKRIQAMIPKGGRMLPQLVCRLVLRCS (disulfide 1-33, 4-27) [ox Mini-B, SP-B analog]
lung gas volumes (median): about 2 ml/kg

IPSSPVHLKRLKLLLLLLLLILLLILGALLMGL [SP-C33]
lung gas volumes, effect of increasing SP-C33 content (SP-C33 content raised from 2 to 4% w/w in DPPC:POPG 68:31): did not increase lung gas volumes | lung gas volumes (median): about 4 ml/kg
